Data taken from US20230271983A1, “FUNCTIONALIZED ISONITRILES AND PRODUCTS, PREPARATION AND USES THEREOF” (UNIVERSIDADE DE SANTIAGO DE COMPOSTELA, priority 2020, published 2023).

What was measured:
[1] = target: T1, human A2BAR (Homo sapiens, UniProt P29275); experiment: A2BAR radioligand competition binding, [3H]DPCPX, HEK-293 cell membranes; conditions: for inhibition at 1 µM: read-out: A2B specific binding inhibition percentage; for Ki: 25 nM [3H]DPCPX, 25° C. 30 min, read-out: A2B Ki
T1 construct: host or cells: HEK-293
T1 sequence (P29275 1-332): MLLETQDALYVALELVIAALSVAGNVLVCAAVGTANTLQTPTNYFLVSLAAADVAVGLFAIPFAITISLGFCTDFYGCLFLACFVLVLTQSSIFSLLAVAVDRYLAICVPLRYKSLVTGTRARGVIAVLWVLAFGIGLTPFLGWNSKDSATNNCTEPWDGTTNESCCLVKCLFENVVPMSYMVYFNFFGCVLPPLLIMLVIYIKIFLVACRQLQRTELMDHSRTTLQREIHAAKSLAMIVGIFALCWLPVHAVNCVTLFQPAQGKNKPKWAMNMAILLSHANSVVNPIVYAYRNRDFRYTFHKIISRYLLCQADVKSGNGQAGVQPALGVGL
Source text: (§1) was evaluate in vitro using radioligand binding assays following a previously described protocol (J. Med. Chem. 2019, 62, 9315-9330). Human ARs were expressed in transfected cell lines [e.g. chinese hamster ovary (CHO) cells (A1AR), human epithelial carcinoma (HeLa) cells (A2AAR and A3AR) and human embryonic kidney (HEK-293) cells (A2BAR)]. [^3H]DPCPX for A1AR and A2BAR, [^3H]NECA for A3AR, and [^3H]ZM241385 for A2AAR were employed as radioligands. […] Using Prism 5.0 software (GraphPad, San Diego, Calif.) K; values were acquired by fitting the data by non-linear regression. Results are the average of three experiments, each of them performed in duplicate. Radioligand binding competition assays were performed in vitro using human ARs expressed in transfected HeLa [hA2AAR (9 pmol/mg protein) and hA3AR (3 pmol/mg protein)], HEK-293 [hA2BAR (1.5 pmol/mg protein)] and CHO [hA1AR (1.5 pmol/mg protein)] cells. A brief description is given below. A1AR competition binding experiments were carried out in membranes from CHO-A, cells labelled with 1 nM [^3H]DPCPX (KD=0.7 nM). Non-specific binding was determined in the presence of 10 μM R-PIA. The reaction mixture was incubated at 25° C. for 60 min. A2AAR competition binding experiments were carried out in membranes from HeLa-A2A cells labelled with 3 nM [^3H]ZM241385 (KD=2 nM). Non-specific binding was determined in the presence of 50 μM NECA. The reaction mixture was incubated at 25° C. for 30 min. […] Non-specific binding was determined in the presence of 400 μM NECA. The reaction mixture was incubated at 25° C. for 30 min. A3AR competition binding experiments were carried out in membranes from HeLa-A3 cells labelled with 10 nM [^3H]NECA (KD=8.7 nM). Non-specific binding was determined in the presence of 100 μM R-PIA. The reaction mixture was incubated at 25° C. for 180 min. After the incubation time, membranes were washed and filtered, radioactivity was detected in a Microbeta Trilux reader (PerkinElmer).
(§2) The adenosinergic (affinity and selectivity) profile of several compounds of the invention was evaluated according to the above examples.

[2] = target: T2, human A2AAR (Homo sapiens, UniProt P29274); experiment: A2AAR radioligand competition binding, [3H]ZM241385, HeLa cell membranes; conditions: for Ki: 3 nM [3H]ZM241385, 25° C. 30 min, read-out: A2A Ki; for inhibition at 1 µM: read-out: A2A specific binding inhibition percentage
T2 construct: expressed in transfected cells; host or cells: HeLa
T2 sequence (P29274 whole entry): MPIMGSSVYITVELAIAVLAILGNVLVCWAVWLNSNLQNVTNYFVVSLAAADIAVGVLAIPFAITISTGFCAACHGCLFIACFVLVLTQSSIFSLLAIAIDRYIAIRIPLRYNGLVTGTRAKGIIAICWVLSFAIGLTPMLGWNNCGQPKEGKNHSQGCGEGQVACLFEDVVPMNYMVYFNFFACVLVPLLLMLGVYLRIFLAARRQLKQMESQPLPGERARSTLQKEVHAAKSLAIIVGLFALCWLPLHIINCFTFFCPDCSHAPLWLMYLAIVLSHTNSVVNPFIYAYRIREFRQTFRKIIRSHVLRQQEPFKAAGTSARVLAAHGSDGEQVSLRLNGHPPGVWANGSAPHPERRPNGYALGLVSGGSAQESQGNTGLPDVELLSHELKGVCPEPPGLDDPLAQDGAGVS
Source text: as §1, §2

[3] = target: T3, human A3AR (Homo sapiens, UniProt P0DMS8); experiment: A3AR radioligand competition binding, [3H]NECA, HeLa cell membranes; conditions: for inhibition at 1 µM: read-out: A3 specific binding inhibition percentage; for Ki: 10 nM [3H]NECA, 25° C. 180 min, read-out: A3 Ki
T3 construct: expressed in transfected cells; host or cells: HeLa
T3 sequence (P0DMS8 1-318): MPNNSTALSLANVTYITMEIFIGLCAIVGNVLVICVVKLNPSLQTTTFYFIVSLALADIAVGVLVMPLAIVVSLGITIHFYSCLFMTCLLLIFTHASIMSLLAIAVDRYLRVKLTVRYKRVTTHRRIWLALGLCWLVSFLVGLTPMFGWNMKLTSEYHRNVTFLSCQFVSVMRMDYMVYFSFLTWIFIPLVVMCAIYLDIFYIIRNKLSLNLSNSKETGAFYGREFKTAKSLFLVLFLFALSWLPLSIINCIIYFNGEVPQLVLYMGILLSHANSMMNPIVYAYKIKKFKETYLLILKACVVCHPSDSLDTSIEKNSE
Source text: as §1, §2

[4] = target: T4, human A1AR (Homo sapiens, UniProt P30542); experiment: A1AR radioligand competition binding, [3H]DPCPX, CHO cell membranes; conditions: for inhibition at 1 µM: read-out: A1 specific binding inhibition percentage; for Ki: 1 nM [3H]DPCPX, 25° C. 60 min, read-out: A1 Ki
T4 construct: expressed in transfected cells; host or cells: CHO
T4 sequence (P30542 1-326): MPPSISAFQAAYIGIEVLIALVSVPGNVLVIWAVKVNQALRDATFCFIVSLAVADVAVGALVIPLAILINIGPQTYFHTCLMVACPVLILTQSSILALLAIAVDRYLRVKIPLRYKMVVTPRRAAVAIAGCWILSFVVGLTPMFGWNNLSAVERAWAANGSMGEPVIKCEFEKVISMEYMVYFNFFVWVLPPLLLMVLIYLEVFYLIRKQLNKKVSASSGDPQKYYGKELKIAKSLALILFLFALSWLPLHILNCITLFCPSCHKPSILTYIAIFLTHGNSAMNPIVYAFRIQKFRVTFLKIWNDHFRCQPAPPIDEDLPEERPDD
Source text: as §1, §2

[5] = target: T5, Dopamine D3 receptor (Homo sapiens, UniProt P35462); experiment: Dopamine D3 receptor competition binding, [3H]-Spiperone; conditions: 1 nM [3H]-Spiperone
T5 construct: purchased Perkin Elmer ES-173M400UA
T5 sequence (P35462 whole entry): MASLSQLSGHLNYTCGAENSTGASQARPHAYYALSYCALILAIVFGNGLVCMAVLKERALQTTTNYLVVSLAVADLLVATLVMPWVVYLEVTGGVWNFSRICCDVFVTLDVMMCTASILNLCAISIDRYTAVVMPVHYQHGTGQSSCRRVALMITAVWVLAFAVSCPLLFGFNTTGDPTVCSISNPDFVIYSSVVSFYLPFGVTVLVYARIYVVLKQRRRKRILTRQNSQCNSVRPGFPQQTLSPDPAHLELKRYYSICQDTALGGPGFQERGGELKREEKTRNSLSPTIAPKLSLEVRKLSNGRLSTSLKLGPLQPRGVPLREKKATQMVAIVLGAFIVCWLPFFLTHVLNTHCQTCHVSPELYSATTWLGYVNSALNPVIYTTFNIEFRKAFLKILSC
Protocol: (§3) was evaluated in vitro using radioligand binding assays following a previously described protocol (J. Med. Chem., 2020, 63, 613-620, Eur. J. Med. Chem., 2019, 180, 673-689). Dopamine D2 receptor competition binding experiments were carried out in a polypropilene 96-well plate. In each well was incubated 10 μg of membranes from CHO-D2 #S20 cell line prepared in Biofarma laboratory (Lot: A002/22-07-2015, protein concentration=4185 μg/ml), 0.15 nM [3H]-Spiperone (80.2 Ci/mmol, 1 mCi/ml, Perkin Elmer NET1187001MC) and compounds studied and standard. Non-specific binding was determined in the presence of Sulpiride 10 μM (Sigma S112). The reaction mixture (Vt: 250 μl/well) was incubated at 25° C. for 120 min, 200 μL was transferred to GF/C 96-well plate (Millipore, Madrid, Spain) pretreated with 0.5% of PEI and treated with binding buffer (Tris-HCl 50 mM, EDTA 1 mM, MgCl2 5 mM, KCl 5 mM, NaCl 120 mM, pH=7.4), after was filtered and washed four times with 250 μl wash buffer (Tris-HCl 50 mM, NaCl 0.9%, pH=7.4), before measuring in a microplate beta scintillation counter (Microbeta Trilux, PerkinElmer). Dopamine D3 receptor competition binding experiments were carried out in a polypropilene 96-well plate. In each well was incubated 2 μg of membranes from D3 cell line (Perkin Elmer, ES-173M400UA, protein concentration=1000 μg/ml), 1 nM [3H]-Spiperone (68 Ci/mmol, 1 mCi/ml, Perkin Elmer NET1187001MC) and compounds studied and standard. Non-specific binding was determined in the presence of Haloperidol 1 μM (Sigma H1512). The reaction mixture (Vt: 250 μl/well) was incubated at 25° C. for 60 min, 200 μL was transferred to GF/C 96-well plate (Millipore, Madrid, Spain) pretreated with 0.5% of PEI and treated with binding buffer (Tris-HCl 50 mM, MgCl2 5 mM, pH=7.4), after was filtered and washed four times with 250 μl wash buffer (Tris-HCl 50 mM, pH=7.4), before measuring in a microplate beta scintillation counter (Microbeta Trilux, PerkinElmer, Madrid, Spain).

[6] = target: T6, Dopamine D2 receptor (Homo sapiens, UniProt P14416); experiment: Dopamine D2 receptor competition binding, [3H]-Spiperone, CHO-D2 membranes; conditions: 0.15 nM [3H]-Spiperone
T6 construct: expressed in transfected cells; host or cells: CHO-D2 #S20 (membranes prepared in Biofarma laboratory)
T6 sequence (P14416 whole entry, species assumed): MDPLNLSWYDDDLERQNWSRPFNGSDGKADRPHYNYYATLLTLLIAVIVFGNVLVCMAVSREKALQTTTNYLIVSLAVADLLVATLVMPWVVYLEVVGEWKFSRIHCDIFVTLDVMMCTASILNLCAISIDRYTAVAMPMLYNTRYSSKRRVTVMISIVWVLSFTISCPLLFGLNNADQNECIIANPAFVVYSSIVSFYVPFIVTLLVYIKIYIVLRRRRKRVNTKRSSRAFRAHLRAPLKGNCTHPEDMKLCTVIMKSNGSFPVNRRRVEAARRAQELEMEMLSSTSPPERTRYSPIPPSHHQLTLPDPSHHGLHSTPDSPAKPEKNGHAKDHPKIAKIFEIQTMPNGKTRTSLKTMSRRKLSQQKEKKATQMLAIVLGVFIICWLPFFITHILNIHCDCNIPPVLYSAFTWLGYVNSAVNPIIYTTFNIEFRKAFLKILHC
Protocol: as §3

[7] = target: T7, D4 (Homo sapiens, UniProt P21917); experiment: Dopamine D4 radioligand binding
T7 sequence (P21917 1-419): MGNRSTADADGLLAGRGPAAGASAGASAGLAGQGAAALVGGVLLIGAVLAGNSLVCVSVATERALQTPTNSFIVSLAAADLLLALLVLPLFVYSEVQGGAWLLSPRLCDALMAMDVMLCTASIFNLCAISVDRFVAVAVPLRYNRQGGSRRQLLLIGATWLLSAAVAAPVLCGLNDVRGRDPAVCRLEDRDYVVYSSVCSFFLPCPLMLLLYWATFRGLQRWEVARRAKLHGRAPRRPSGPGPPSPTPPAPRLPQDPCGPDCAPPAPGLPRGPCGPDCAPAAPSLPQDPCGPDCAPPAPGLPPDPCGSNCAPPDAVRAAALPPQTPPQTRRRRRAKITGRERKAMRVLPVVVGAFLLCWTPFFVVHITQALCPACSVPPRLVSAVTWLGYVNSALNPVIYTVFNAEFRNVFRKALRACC

Compound | inhibition at 1 µM [1] [%] | inhibition at 1 µM [3] [%] | inhibition at 1 µM [4] [%] | Ki [1] [nM] | inhibition at 1 µM [2] [%] | Ki [5] [nM] | Ki [6] [nM] | Ki [3] [nM] | other results
CN(CC(=O)NCCOCCOCCNC(=O)CN(C)C(=O)CC(C)(C)CC(=O)Nc1c(F)cc(C(=O)Nc2nccs2)cc1F)C(=O)CCCCCN1/C(=C/C=C/C=C/C2=[N+](C)c3ccccc3C2(C)C)C(C)(C)c2ccccc21 | 59 | 54 | 33 | – | – | – | – | – | Ki [2]: 420 nM
CCCn1c(=O)c2[nH]c(-c3ccc(OCC(=O)NCC(=O)N4CCN(C(C)(C)C(=O)NCCCOCCOCCOCCCNC(=O)CN(C)C(=O)COc5ccc(C6=[N+]7C(=Cc8ccc(-c9cccs9)n8[B-]7(F)F)C=C6)cc5)CC4)cc3)cc2n(C)c1=O | – | 37 | 46 | 250 | 1 | – | – | – | –
CN(CC(=O)NCCCOCCOCCOCCCNC(=O)CN(C)C(=O)COc1ccc(-c2ccc3n2[B-](F)(F)[N+]2=C(c4cccs4)C=CC2=C3)cc1)C(=O)CCC(=O)Nc1ccc(CCN2CN(c3ccccc3)C3(CCN(CCCC(=O)c4ccc(F)cc4)CC3)C2=O)cc1 | – | – | – | – | – | 148 | 1.06 | – | –
CCCn1c(=O)c2[nH]c(-c3ccc(OCC(=O)NCC(=O)N4CCN(CC(=O)NCCCOCCOCCOCCCNC(=O)CN(C)C(=O)COc5ccc(C6=[N+]7C(=Cc8ccc(-c9cccs9)n8[B-]7(F)F)C=C6)cc5)CC4)cc3)cc2n(C)c1=O | – | – | – | 39.6 | 23 | – | – | 42.7 | Ki [4]: 471 nM
[C-]#[N+]CCCOCCOCCOCCCNC(=O)CN(C)C(=O)/C=C/c1ccc2sc(C(=O)NCCCCN3CCN(c4cccc(Cl)c4Cl)CC3)cc2c1 | – | – | – | – | – | 1 | 1.1 | – | Ki [7]: 500 nM
COc1ccc(-c2cc(NC(=O)COCC(=O)N(C)CC(=O)NCCOCCOCCOCCOCCNC(=O)CN(C)C(=O)CCCOc3ccc(CN4CCN(c5ccccc5OC)CC4)cc3OC)nc(-c3ccc(OC)cc3)n2)cc1 | 4 | – | 8 | – | 5 | 2600 | 30 | 10 | –
[C-]#[N+]CCCOCCOCCOCCCNC(=O)CN1CCN(C(=O)CNC(=O)COc2ccc(-c3cc4c([nH]3)c(=O)n(CCC)c(=O)n4C)cc2)CC1 | – | – | – | 78.6 | 13 | – | – | 195 | Ki [4]: 101 nM
COc1ccc(-c2cc(NC(=O)CCC(=O)N(C)CC(=O)NCCCOCCOCCOCCCNC(=O)CN(C)C(=O)COc3ccc(-c4ccc5n4[B-](F)(F)[N+]4=C(c6cccs6)C=CC4=C5)cc3)nc(-c3ccc(OC)cc3)n2)cc1 | – | – | – | – | – | – | – | 6.13 | –
CN(CC(=O)NCCCOCCOCCOCCCNC(=O)CN(C)C(=O)CC(C)(C)CC(=O)Nc1c(F)cc(C(=O)Nc2nccs2)cc1F)C(=O)CCCCCN1/C(=C/C=C/C=C/C2=[N+](C)c3ccccc3C2(C)C)C(C)(C)c2ccccc21 | 18 | 37 | 31 | – | – | – | – | – | Ki [2]: 8.35 nM
